According to PubChem BioAssay (NCI):
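These data come from cells grown in 96-well plates and exposed to compound for 48 hours at five concentrations. TGI marks complete inhibition of growth.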

Assays:
Experiment in all cases: growth of human tumour cells (NCI), 48 h
786-0 renal = tested on: 786-0 renal
A498 renal = tested on: A498 renal
A549 NSCLC = tested on: A549 NSCLC
ACHN renal = tested on: ACHN renal
BT-549 breast = tested on: BT-549 breast
CAKI-1 renal = tested on: CAKI-1 renal
CCRF-CEM leukemia = tested on: CCRF-CEM leukemia
COLO 205 colon = tested on: COLO 205 colon
DU-145 prostate = tested on: DU-145 prostate
EKVX NSCLC = tested on: EKVX NSCLC
HCC-2998 colon = tested on: HCC-2998 colon
HCT-116 colon = tested on: HCT-116 colon
HCT-15 colon = tested on: HCT-15 colon
HOP-62 NSCLC = tested on: HOP-62 NSCLC
HS 578T breast = tested on: HS 578T breast
HT29 colon = tested on: HT29 colon
IGROV1 ovarian = tested on: IGROV1 ovarian
K-562 leukemia = tested on: K-562 leukemia
KM12 colon = tested on: KM12 colon
LOX IMVI melanoma = tested on: LOX IMVI melanoma
M14 melanoma = tested on: M14 melanoma
MALME-3M melanoma = tested on: MALME-3M melanoma
MCF7 breast = tested on: MCF7 breast
MDA-MB-231 breast = tested on: MDA-MB-231 breast
MDA-MB-435 = tested on: MDA-MB-435
MDA-N = tested on: MDA-N
MOLT-4 leukemia = tested on: MOLT-4 leukemia
NCI-H226 lung = tested on: NCI-H226 lung
NCI-H23 lung = tested on: NCI-H23 lung
NCI-H460 lung = tested on: NCI-H460 lung
NCI-H522 lung = tested on: NCI-H522 lung
NCI/ADR-RES ovarian = tested on: NCI/ADR-RES ovarian
OVCAR-3 ovarian = tested on: OVCAR-3 ovarian
OVCAR-8 ovarian = tested on: OVCAR-8 ovarian
PC-3 prostate = tested on: PC-3 prostate
RPMI-8226 leukemia = tested on: RPMI-8226 leukemia
RXF 393 renal = tested on: RXF 393 renal
SF-268 CNS = tested on: SF-268 CNS
SF-295 CNS = tested on: SF-295 CNS
SF-539 CNS = tested on: SF-539 CNS
SK-MEL-2 melanoma = tested on: SK-MEL-2 melanoma
SK-MEL-28 melanoma = tested on: SK-MEL-28 melanoma
SK-MEL-5 melanoma = tested on: SK-MEL-5 melanoma
SK-OV-3 ovarian = tested on: SK-OV-3 ovarian
SN12C renal = tested on: SN12C renal
SNB-19 CNS = tested on: SNB-19 CNS
SNB-75 CNS = tested on: SNB-75 CNS
SR leukemia = tested on: SR leukemia
SW-620 colon = tested on: SW-620 colon
TK-10 renal = tested on: TK-10 renal
U251 CNS = tested on: U251 CNS
UACC-257 melanoma = tested on: UACC-257 melanoma
UACC-62 melanoma = tested on: UACC-62 melanoma
UO-31 renal = tested on: UO-31 renal
HOP-92 NSCLC = tested on: HOP-92 NSCLC
OVCAR-4 ovarian = tested on: OVCAR-4 ovarian
OVCAR-5 ovarian = tested on: OVCAR-5 ovarian

CCOC(=O)CC1c2ccc(O)cc2OC(=O)C1c1ccc(N)cc1 (stereo not drawn)
TGI (786-0 renal): > 100 µM | TGI (A498 renal): > 100 µM | TGI (A549 NSCLC): > 100 µM | TGI (ACHN renal): > 100 µM | TGI (BT-549 breast): > 100 µM | TGI (CAKI-1 renal): > 100 µM | TGI (CCRF-CEM leukemia): > 100 µM | TGI (COLO 205 colon): > 100 µM | TGI (DU-145 prostate): > 100 µM | TGI (EKVX NSCLC): > 100 µM | TGI (HCC-2998 colon): > 100 µM | TGI (HCT-116 colon): > 100 µM | TGI (HCT-15 colon): > 100 µM | TGI (HOP-62 NSCLC): > 100 µM | TGI (HS 578T breast): > 100 µM | TGI (HT29 colon): > 100 µM | TGI (IGROV1 ovarian): > 100 µM | TGI (K-562 leukemia): > 100 µM | TGI (KM12 colon): > 100 µM | TGI (LOX IMVI melanoma): > 100 µM | TGI (M14 melanoma): > 100 µM | TGI (MALME-3M melanoma): > 100 µM | TGI (MCF7 breast): > 100 µM | TGI (MDA-MB-231 breast): > 100 µM | TGI (MDA-MB-435): > 100 µM | TGI (MDA-N): > 100 µM | TGI (MOLT-4 leukemia): > 100 µM | TGI (NCI-H226 lung): > 100 µM | TGI (NCI-H23 lung): > 100 µM | TGI (NCI-H460 lung): > 100 µM | TGI (NCI-H522 lung): > 100 µM | TGI (NCI/ADR-RES ovarian): > 100 µM | TGI (OVCAR-3 ovarian): > 100 µM | TGI (OVCAR-8 ovarian): > 100 µM | TGI (PC-3 prostate): > 100 µM | TGI (RPMI-8226 leukemia): > 100 µM | TGI (RXF 393 renal): > 100 µM | TGI (SF-268 CNS): > 100 µM | TGI (SF-295 CNS): > 100 µM | TGI (SF-539 CNS): > 100 µM | TGI (SK-MEL-2 melanoma): > 100 µM | TGI (SK-MEL-28 melanoma): > 100 µM | TGI (SK-MEL-5 melanoma): > 100 µM | TGI (SK-OV-3 ovarian): > 100 µM | TGI (SN12C renal): > 100 µM | TGI (SNB-19 CNS): > 100 µM | TGI (SNB-75 CNS): > 100 µM | TGI (SR leukemia): > 100 µM | TGI (SW-620 colon): > 100 µM | TGI (TK-10 renal): > 100 µM | TGI (U251 CNS): > 100 µM | TGI (UACC-257 melanoma): > 100 µM | TGI (UACC-62 melanoma): > 100 µM | TGI (UO-31 renal): > 100 µM

COc1c(C)c(OC)c2c(c1O)[C@@H]1[C@@H]3Cc4c(OC)c(C)c(OC)c(O)c4[C@H](CNC(=O)c4ccc5ccccc5n4)N3[C@@H](C#N)[C@H](C2)N1C
TGI (786-0 renal): 0.00791 µM | TGI (A498 renal): 0.00411 µM | TGI (ACHN renal): > 0.1 µM | TGI (BT-549 breast): 0.00172 µM | TGI (CAKI-1 renal): 0.0384 µM | TGI (COLO 205 colon): > 0.1 µM | TGI (DU-145 prostate): > 0.0296 µM | TGI (HCC-2998 colon): 0.0007 µM | TGI (HCT-116 colon): 0.00585 µM | TGI (HCT-15 colon): > 0.0597 µM | TGI (HOP-62 NSCLC): 0.0104 µM | TGI (HOP-92 NSCLC): 0.00322 µM | TGI (HS 578T breast): 0.00741 µM | TGI (HT29 colon): 0.00491 µM | TGI (IGROV1 ovarian): 0.000858 µM | TGI (K-562 leukemia): > 0.1 µM | TGI (KM12 colon): 0.00227 µM | TGI (LOX IMVI melanoma): > 0.1 µM | TGI (M14 melanoma): 0.00267 µM | TGI (MALME-3M melanoma): 0.000743 µM | TGI (MCF7 breast): > 0.1 µM | TGI (MDA-MB-231 breast): > 0.0276 µM | TGI (MDA-MB-435): 0.00438 µM | TGI (MDA-N): 0.00283 µM | TGI (MOLT-4 leukemia): 0.0144 µM | TGI (NCI-H226 lung): 0.00571 µM | TGI (NCI-H23 lung): 0.00187 µM | TGI (NCI-H460 lung): > 0.0901 µM | TGI (NCI-H522 lung): 0.000444 µM | TGI (NCI/ADR-RES ovarian): > 0.052 µM | TGI (OVCAR-3 ovarian): 0.0023 µM | TGI (OVCAR-4 ovarian): 0.00742 µM | TGI (OVCAR-5 ovarian): 0.00353 µM | TGI (OVCAR-8 ovarian): > 0.1 µM | TGI (PC-3 prostate): > 0.0514 µM | TGI (RXF 393 renal): 0.00347 µM | TGI (SF-268 CNS): 0.0305 µM | TGI (SF-295 CNS): > 0.0214 µM | TGI (SF-539 CNS): 0.00774 µM | TGI (SK-MEL-2 melanoma): 0.000832 µM | TGI (SK-MEL-28 melanoma): 0.00592 µM | TGI (SK-MEL-5 melanoma): 0.00186 µM | TGI (SK-OV-3 ovarian): > 0.1 µM | TGI (SN12C renal): > 0.1 µM | TGI (SNB-19 CNS): > 0.1 µM | TGI (SNB-75 CNS): 0.0143 µM | TGI (SR leukemia): 0.000329 µM | TGI (SW-620 colon): 0.00251 µM | TGI (TK-10 renal): 0.0023 µM | TGI (U251 CNS): > 0.1 µM | TGI (UACC-257 melanoma): 0.00546 µM | TGI (UACC-62 melanoma): 0.00236 µM | TGI (UO-31 renal): 0.00879 µM

O=C1C=CC2(C=C1)CCC(=O)O2
TGI (786-0 renal): 31 µM | TGI (A498 renal): > 100 µM | TGI (A549 NSCLC): 44.1 µM | TGI (ACHN renal): 34.2 µM | TGI (BT-549 breast): 46.3 µM | TGI (CAKI-1 renal): 18.2 µM | TGI (CCRF-CEM leukemia): 25.3 µM | TGI (COLO 205 colon): 23.1 µM | TGI (DU-145 prostate): 31.5 µM | TGI (EKVX NSCLC): 43.8 µM | TGI (HCC-2998 colon): 27.2 µM | TGI (HCT-116 colon): 28 µM | TGI (HCT-15 colon): 54.3 µM | TGI (HOP-62 NSCLC): 38.2 µM | TGI (HOP-92 NSCLC): 26.6 µM | TGI (HS 578T breast): > 100 µM | TGI (HT29 colon): > 100 µM | TGI (IGROV1 ovarian): 28.5 µM | TGI (K-562 leukemia): > 100 µM | TGI (KM12 colon): 29.9 µM | TGI (LOX IMVI melanoma): 20.9 µM | TGI (M14 melanoma): > 100 µM | TGI (MALME-3M melanoma): 19.6 µM | TGI (MCF7 breast): 34.5 µM | TGI (MDA-MB-231 breast): 23.9 µM | TGI (MDA-MB-435): 29.6 µM | TGI (MDA-N): > 100 µM | TGI (MOLT-4 leukemia): > 100 µM | TGI (NCI-H226 lung): > 100 µM | TGI (NCI-H23 lung): 43.9 µM | TGI (NCI-H460 lung): 30.7 µM | TGI (NCI-H522 lung): 5.4 µM | TGI (NCI/ADR-RES ovarian): > 100 µM | TGI (OVCAR-3 ovarian): 28.9 µM | TGI (OVCAR-4 ovarian): 29.9 µM | TGI (OVCAR-5 ovarian): 46 µM | TGI (OVCAR-8 ovarian): > 100 µM | TGI (PC-3 prostate): 27.1 µM | TGI (RPMI-8226 leukemia): 23.7 µM | TGI (RXF 393 renal): 28.3 µM | TGI (SF-268 CNS): 51.6 µM | TGI (SF-295 CNS): 46.4 µM | TGI (SF-539 CNS): 76.8 µM | TGI (SK-MEL-2 melanoma): 36.6 µM | TGI (SK-MEL-28 melanoma): > 100 µM | TGI (SK-MEL-5 melanoma): 29.8 µM | TGI (SN12C renal): 34.5 µM | TGI (SNB-19 CNS): 37.4 µM | TGI (SNB-75 CNS): 39.1 µM | TGI (SR leukemia): > 100 µM | TGI (SW-620 colon): 37.5 µM | TGI (TK-10 renal): 24.2 µM | TGI (U251 CNS): 23.1 µM | TGI (UACC-257 melanoma): 80.2 µM | TGI (UACC-62 melanoma): 37.4 µM | TGI (UO-31 renal): 31.2 µM
